The text below walks through data of ChEMBL document CHEMBL1687693, “Facile synthesis of a fluorescent cyclosporin a analogue to study cyclophilin 40 and cyclophilin 18 ligands” (ACS Med Chem Lett, 2010).

In experiment [1] the target is T1, Peptidyl-prolyl cis-trans isomerase A (Homo sapiens, UniProt P62937). In words: Inhibition of cyclosporin binding to Cyp18 by fluorescence polarization competition assay. In general terms: Fluorescence polarisation rises when a labelled molecule tumbles more slowly, as on binding a larger partner.
For experiment [2], the target named is T2, Peptidyl-prolyl cis-trans isomerase D (Homo sapiens, UniProt Q08752). The experiment can be described thus: Inhibition of cyclosporin binding to Cyp40 by fluorescence polarization competition assay.
Experiment [3] addresses T2, Peptidyl-prolyl cis-trans isomerase D. The experiment can be described thus: Inhibition of Cyclophilin 40 PPIase activity.
Experiment [4] concerns the target T1, Peptidyl-prolyl cis-trans isomerase A. In words: Inhibition of Cyclophilin 18 PPIase activity.

T1 sequence (P62937 whole entry): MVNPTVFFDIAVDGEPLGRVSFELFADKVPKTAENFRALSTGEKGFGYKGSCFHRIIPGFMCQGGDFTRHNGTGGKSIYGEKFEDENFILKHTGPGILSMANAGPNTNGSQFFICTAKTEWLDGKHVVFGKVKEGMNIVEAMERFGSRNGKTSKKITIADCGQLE
T2 sequence (Q08752 whole entry): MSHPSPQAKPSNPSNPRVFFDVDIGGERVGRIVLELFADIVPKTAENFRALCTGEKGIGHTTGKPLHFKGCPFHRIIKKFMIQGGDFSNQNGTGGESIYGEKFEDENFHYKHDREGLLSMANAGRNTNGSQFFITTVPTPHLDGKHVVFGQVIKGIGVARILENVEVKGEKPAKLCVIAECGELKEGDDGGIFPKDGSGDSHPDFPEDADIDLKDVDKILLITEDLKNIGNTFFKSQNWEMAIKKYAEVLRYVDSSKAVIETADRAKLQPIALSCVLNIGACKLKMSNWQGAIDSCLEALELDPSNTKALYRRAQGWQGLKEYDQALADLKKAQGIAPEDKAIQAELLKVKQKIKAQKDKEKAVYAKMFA

A word on the Kd: it is a measure of binding affinity in units of concentration. Low values mean tighter binding, high ones weaker binding. Usually Ki stands for a measure of affinity in units of concentration, obtained from inhibition or displacement. Read a low Ki as a stronger hold on the target. As for `CC[C@@H]1NC(=O)[C@H]([C@H](O)[C@H](C)C/C=C/c2ccc(CNC(=O)c3ccc(-c4c5ccc(=O)cc-5oc5cc(O)ccc45)c(C(=O)O)c3)cc2)N(C)C(=O)[C@H](C(C)C)N(C)C(=O)[C@H](CC(C)C)N(C)C(=O)[C@H](CC(C)C)N(C)C(=O)[C@@H](C)NC(=O)[C@H](C)NC(=O)[C@H](CC(C)C)N(C)C(=O)[C@H](C(C)C)NC(=O)[C@H](CC(C)C)N(C)C(=O)CN(C)C1=O`, the Kd in experiment [1] stood at 12 nM; in experiment [2], 101 nM. For the same molecule, the Ki amounted to 12 nM in experiment [3] and 106 nM in experiment [4].
